Measured values reported in patent US10196356B2, “Mixed disulfide conjugates of thienopyridine compounds and uses thereof” (The Regents of the University of Michigan, priority 2013, dated 2019).

Tests used:
[1] = test system: platelets (P2Y12 receptor); test: Ex vivo anti-platelet activity of the mixed disulfide conjugates (ADP-induced aggregation, aggregometer); type: cell-based, New Zealand white rabbits; details: 10 μM ADP; for inhibition of platelet aggregation, conjugate itself: not treated with GSH
Description: The mixed disulfide conjugates were prepared and purified from the reaction mixtures in the presence of 0.3 mM CPT and NPT, along with three control samples containing either 1 mM GSH, no thiol reductant or no G6PD. All samples were re-suspended in 0.5 ml PPP, some of which were treated to 1 mM GSH to release the AM. Platelet aggregation was initiated by the addition of 10 μM ADP and recorded with an aggregometer. The percentage of aggregation was normalized to that of PRP and averaged over four separate measurements. For details, see Materials and Methods. Legend: PRP, untreated platelet-rich plasma; GSH, 1 mM GSH in PRP; −G6PD, metabolites produced in the absence of G6PD; —SH, metabolites produced in the absence of any thiol reductants; GSH, metabolites produced in the presence of 1 mM GSH; CPT, metabolites produced in the presence of 0.3 mM CPT; CPT+GSH, metabolites produced in the presence of 0.3 mM CPT and then treated with 1 mM GSH; NPT, metabolites produced in the presence of 0.3 mM NPT; NPT+GSH, metabolites produced in the presence of 0.3 mM NPT and then treated with 1 mM GSH.
In order to generate sufficient quantities of the mixed disulfide conjugates, the metabolism of 2-oxoclopidogrel was performed in 2-ml reaction mixtures containing 1 mg/ml HLM, 0.1 mM 2-oxoclopidogrel, the NADPH-regenerating system, and 0.3 mM CPT or NPT or 1 mM GSH. The reaction was initiated by the addition of 10 units G6PD and incubated at 37° C. for 50 min. Two control samples were prepared in parallel. […] After an incubation of 50 min, the reaction mixtures were centrifuged at 13,000×g to remove the HLMs. The supernatants were loaded onto SPE C18 cartridges to enrich the mixed disulfide conjugates. After extensive washing with water to remove salts and other water-soluble metabolites, the conjugate samples were eluted with 2 ml of methanol. The methanolic fractions were dried using a Speedvac concentrator and the dried samples were then re-suspended in 1 ml of platelet-poor plasma (PPP). Prior to the anti-platelet activity assays, the re-suspended conjugates were divided into two equal volumes (0.5 ml each), one of which was treated with 1 mM GSH at 37° C. for 30 min to generate the AM. Both samples were then placed on ice until use.
The procedures used to determine ex vivo anti-platelet activity were previously reported (see, e.g., Abell L M and Liu E C (2011) J Pharm Exp Ther 339(2):589-596).
Male New Zealand white rabbits (2.2-2.9 kg) were used as blood donors. Whole blood was drawn from a central ear artery into a plastic syringe containing 3.7% sodium citrate as the anticoagulant (1:10 volume ratio of citrate to blood). A whole blood cell count was determined with a Medonic CA620 hematology analyzer (Clinical Diagnostic Solutions, Inc., Plantation, Fla., USA). Platelet-rich plasma (PRP), the supernatant present after centrifugation of whole blood at 100×g for 10 min, was diluted with PPP to achieve a platelet count of approximately 300,000/μl. Platelet-poor plasma was prepared by centrifuging the remaining blood at 1,500×g for 10 min and discarding the bottom cellular layer. The diluted PRP was divided into 0.5 ml samples, centrifuged again at 170×g for 10 mins, and the resulting supernatant was discarded. The platelet pellets were re-suspended in platelet-poor plasma containing the various chemical inhibitors prepared as described previously and incubated with gentle shaking at 37° C. for 60 min to modify the P2Y12 receptor. Ex vivo platelet aggregation was assessed by established nephelometric methods with the use of a 4-channel aggregometer (BioData PAP-4; BioData Corp., Horsham, Pa., USA) by recording the increase in light transmission through a stirred suspension of PRP maintained at 37° C. Platelet aggregation was induced with ADP (10 μM). A subaggregatory concentration of epinephrine (550 nM) was used to prime the platelets before addition of the agonist.

[2] = Kinetics for the reduction of the mixed disulfide conjugates of clopidogrel by GSH (conversion to the AM); type: in vitro ADME; details: for first order rate constant for the loss of the mixed disulfide conjugate: 0.2 mg/ml cytosol, 37° C.; for second order rate constant for the loss of the conjugate: equivalent from pseudo first order with 1 mM GSH, with cytosol
Description: The mixed disulfide conjugates were prepared from the reaction mixtures containing 1 mg/ml HLM, 0.1 mM 2-oxoclopidogrel, the NADPH-regenerating system and various thiol reductants and purified using SPE C18 cartridges as described in Materials and Methods. The purified conjugates were then mixed with 1 mM GSH and 0.2 mg/ml cytosol (when present). The conjugate remaining and the AM formed were analyzed using LC-MS/MS. Legend: (A) reduction of the conjugates of BME (◯), CPT (▪), NAC (▾), DFT (▴), and NPT (□) by 1 mM GSH in the presence of 0.2 mg/ml cytosol. (B) reduction of the CPT conjugate by 1 mM GSH in the presence and absence of 0.2 mg/ml cytosol. Legend: (◯), formation of AM in the absence of cytosol; (Δ), formation of the AM in the presence of cytosol; (●), reduction of the conjugate in the absence of cytosol; (▴), reduction of the conjugate in the presence of cytosol. The solid and dashed lines are non-linear curve fittings to a single exponential function.
To examine the reactivity of the mixed disulfide conjugates, the kinetics for the reduction of the mixed disulfide conjugates by GSH were determined. The mixed disulfide conjugates were generated in 1 ml of 50 mM KPi buffer (pH 7.4) buffer containing 1 mg/ml HLM, 0.1 mM 2-oxoclopidogrel and 0.3 or 1 mM thiol reductants. The reaction was incubated at 37° C. for 50 min after initiated by the addition of G6PD. The reaction mixture was then centrifuged at 13,000×g to remove the HLMs and the supernatant was loaded to a pre-conditioned SPE cartridge (C18, 100 mg/1 ml, Agilent Technologies, CA) and the mixed disulfide conjugate was eluted with 2 ml of methanol. The eluent was then dried using a Speedvac concentrator and the dried sample was stored at −80° C. until use. Prior to the kinetic measurements, the dried samples were first re-dissolved in 0.5 ml of 50 mM KPi buffer (pH 7.4) and then equilibrated at 37° C. for 5 min. Small aliquots (1-5 μl) of stock GSH and cytosol (when present) solutions were added to the conjugate samples at 1 mM and 0.2 mg/ml, respectively, to initiate the thiol-disulfide exchange reaction. At designated times, an aliquot of 50 μl of the reaction mixture was withdrawn and mixed with 25 μl of 10% acetic acid in acetonitrile to terminate the thiol-disulfide exchange reaction. The t=0 sample was prepared immediately prior to the addition of GSH. The amounts of the mixed disulfide conjugates and the AM were analyzed using LC-MS/MS as described above.

[3] = test system: platelets; test: Platelet aggregation assay with conjugates pre-incubated with GSH (Example III); type: cell-based, rabbits; details: 5 μM ADP; for inhibition of platelet aggregation: conjugate incubated with 1 mM GSH 37° C. 30 min, compared with negative control without conjugate
Description: Approximately 20 ml blood was drawn from rabbits and platelets were collected by centrifugation whereas the supernatants were collected as platelet poor plasma (PPP). Prior to the inhibition assay, the conjugates of Clop-CPT and Tic-NPT were dissolved in 0.5 ml PPP and incubated with 1 mM GSH at 37° C. for 30 min to produce the active metabolite. The platelets were then re-suspended gently in the PPP containing the active metabolite. After incubation at 37° C. for one hour, platelet aggregation was initiated by the addition of 5 μM of the agonist ADP. Platelet aggregation was then recorded using an aggregometer.

[4] = conjugate treated with 1 mM GSH 37° C. 30 min, normalized to PRP
[5] = 1 mM GSH, in the absence of cytosol
[6] = 1 mM GSH, in the presence of cytosol (FIG. 5B)

For `COC(=O)[C@H](c1ccccc1Cl)N1CCC2SC(=O)C=C2C1` (stereo partly drawn) [2-oxoclopidogrel, reference compound], the “inhibition of platelet aggregation” value ([1]; −G6PD control (non-metabolite components of the reaction mixture)) was “did not inhibit platelet aggregation”.

With `COC(=O)C(c1ccccc1Cl)N1CCC(SSc2ncccc2[N+](=O)[O-])C(=CC(=O)O)C1` (stereo not drawn) [NPT conjugate] the “first order rate constant for the loss of the mixed disulfide conjugate” value (shortened to “first order rate constant for the loss”) ([2]; 1 mM GSH) was 0.13 min⁻¹, the “second order rate constant for the loss of the conjugate” value (from here on “second order rate constant for the loss”) [2] was 2.2 M⁻¹ s⁻¹ and the “inhibition of platelet aggregation” value [1, 4] was about 70%. The “inhibition of platelet aggregation, conjugate itself” value ([1]; normalized to PRP) was “did not inhibit platelet aggregation”.

In the case of `COC(=O)[C@H](c1ccccc1Cl)N1CCC(SSc2cc(C)oc2C)C(=CC(=O)O)C1` (stereo partly drawn) [DFT conjugate], the “first order rate constant for the loss” value ([2]; 1 mM GSH) is reported as 1.65 min⁻¹ and the “second order rate constant for the loss” value [2] is reported as 28 M⁻¹ s⁻¹.

In the case of `COC(=O)C(c1ccccc1Cl)N1CCC(SSc2ccc(Cl)nn2)/C(=C\C(=O)O)C1` (stereo not drawn) [Clop-CPT], the “inhibition of platelet aggregation” value [3] is reported as “approximately 60%”, the “first order rate constant for the loss” value ([2]; 1 mM GSH) is reported as 0.79 min⁻¹ and the “rate constant for the formation of the AM” value [2, 5] is reported as 0.35 min⁻¹. The “rate constant for the reduction of the conjugate” value [2, 5] was 0.39 min⁻¹, the “rate constant for the formation of the AM” value [2, 6] was 0.50 min⁻¹ and the “rate constant for the reduction of the conjugate” value [2, 6] was 0.73 min⁻¹. For the same compound, the “second order rate constant for the loss” value [2] was 13 M⁻¹ s⁻¹, the “inhibition of platelet aggregation” value [1, 4] was about 50% and the “inhibition of platelet aggregation, conjugate itself” value ([1]; normalized to PRP) was “did not inhibit platelet aggregation”.

For `O=C(O)/C=C1/CN(Cc2ccccc2Cl)CCC1SSc1ncccc1[N+](=O)[O-]` (stereo not drawn) [Tic-NPT, (Z)-2-(1-(2-chlorobenzyl)-4-((3-nitropyridin-2-yl)disulfanyl)piperidin-3-ylidene)acetic acid], the “inhibition of platelet aggregation” value [3] was “approximately 60%”.

With `COC(=O)[C@H](c1ccccc1Cl)N1CCC(S)/C(=C\C(=O)O)C1` (stereo partly drawn) [AM, reference compound] the “level of inhibition of platelet aggregation relative to the conjugates” value ([3]; positive control: active metabolite generated from HLMs) was “approximately the same” and the “inhibition of platelet aggregation” value ([1]; sample from HLM reaction mixture containing 1 mM GSH (AM, estimated 1-4 μM)) was about 60%.

In the case of `COC(=O)[C@H](c1ccccc1Cl)N1CCC(SSCCO)C(=CC(=O)O)C1` (stereo partly drawn) [BME conjugate], the “first order rate constant for the loss” value ([2]; 1 mM GSH) is reported as 0.07 min⁻¹, the “conjugate remaining after incubation” value ([2]; 40 min, 1 mM GSH, cytosol) is reported as about 50% and the “second order rate constant for the loss” value [2] is reported as 1.2 M⁻¹ s⁻¹.

With `COC(=O)C(c1ccccc1Cl)N1CCC(SSCC(NC(C)=O)C(=O)O)C(=CC(=O)O)C1` (stereo not drawn) [NAC conjugate] the “first order rate constant for the loss” value ([2]; 1 mM GSH) was 0.43 min⁻¹ and the “second order rate constant for the loss” value [2] was 7.2 M⁻¹ s⁻¹.
